Source: patent US20210246202A1, “TREATMENTS RELATED TO GH/IGF-1 AXIS INHIBITION” (UNIVERSITY OF SOUTHERN CALIFORNIA, priority 2010, published 2021)
Blank lines part the entries; values can stand above or below the molecule they belong to.

Key:
[1] = tested on: pancreatic carcinoma cells; conditions: Mol Cancer Ther May 2009 8:1095-1105; cited from earlier work
human GH = human GH (Homo sapiens, UniProt P01241); test: Slot blot of anti-huGH activity in serum from mice immunized with huGH; format: in vivo, mouse; conditions: slot blot on immobilized human GH
[2] = Body weight of mice immunized with huGH; format: in vivo, mouse; conditions: 20 male and 20 female mice immunized with huGH
Excerpt: FIG. 13A provides a plot of body weight of mice immunized with human Growth Hormone (huGH) (20 male and 20 female) versus time.
This figure provides a plot of body weight of mice immunized with human Growth Hormone (huGH) (20 male and 20 female) versus time.

[3] = tested on: chemotherapy side effects; test: Short term immunization with human GH before cyclophosphamide treatment (body weight, complete blood count); format: in vivo, mouse; conditions: cyclophosphamide i.p., 300 mg/kg, body weight and CBC 7-days after CP
Experimental: FIG. 14A provides plots of the body weight of mice with short term immunization (STI) with human GH (half-filled arrowheads) after cyclophosphamide treatment (cyclophosphamide (CP) i.p., 300 mg/kg, indicated by the solid arrowhead)(Sham means treated with buffer and no chemo);
FIG. 14B provides a histogram of the complete blood count (CBC) 7-days after CP treatment (Data are presented as percentage of pre-chemo value);
FIG. 14A provides plots of the body weight of mice with short term immunization (STI) with human GH (half-filled arrowheads) after cyclophosphamide treatment (cyclophosphamide (CP) i.p., 300 mg/kg, indicated by solid arrowheads). FIG. 14B provides a histogram of the complete blood count (CBC) 7-days after CP treatment (Data are presented as percentage of pre-chemo value).

primary glial cells = test: 24 hour LDH release from primary glial cells treated with IGFBP1; format: cell-based
Experimental: FIG. 17 provides a plot of the 24 hour lactate dehydrogenase (LDH) release from the treatment of primary glial cells with the IGF-I inhibitor insulin-like growth factor-binding protein 1 (IGFBP1) and with insulin-like growth factor-binding protein 2 (IGFBP2). […] IGFBP1 is a strong IGF-I inhibitor. Other IGFBPs can even increase IGF-I signaling.

Sequence of human GH (P01241 27-217): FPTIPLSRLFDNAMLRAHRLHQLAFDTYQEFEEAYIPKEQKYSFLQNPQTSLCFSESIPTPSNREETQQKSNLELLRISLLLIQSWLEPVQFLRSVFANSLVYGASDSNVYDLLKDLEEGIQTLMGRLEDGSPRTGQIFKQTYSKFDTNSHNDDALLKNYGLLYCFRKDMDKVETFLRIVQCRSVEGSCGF

Molecule: AMG 479: a fully human anti-insulin-like growth factor receptor type I monoclonal antibody
- effect on growth and survival of pancreatic carcinoma cells [1]: inhibits the growth and survival of pancreatic carcinoma cells

- immunized mice showing strong anti-huGH activity in serum (human GH): 34 out of 40
Molecule: human Growth Hormone [huGH]
- body weight of immunized mice [2]: Lower body weight
- effect against chemotherapy side effects [3]: protective effect against chemotherapy side effects

B1: insulin-like growth factor-binding protein 1 (protein, UniProt P08833 26-259, looked up)
Insulin-like growth …: APWQCAPCSAEKLALCPPVSASCSEVTRSAGCGCCPMCALPLGAACGVATARCARGLSCRALPGEQQPLHALTRGQGACVQESDASAPHAAEAGSPESPESTEITEEELLDNFHLMAPSEEDHSILWDAISTYDGSKALHVTNIKKWKEPCRIELYRVVESLAKAQETSGEEISKFYLPNCNKNGFYHSRQCETSMDGEAGLCWCVYPWNGKRIPGSPEIRGDPNCQIYFNVQN
- protection against oxidative damage (LDH release) (primary glial cells): protects them against oxidative damage
